Measurements taken from ChEMBL document CHEMBL1201862, “PubChem BioAssay data set” (2004).
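Following 48 hours of exposure in 96-well plates, responses at five concentrations were used to interpolate endpoints linearly. Here, GI50 denotes the concentration required for 50% inhibition of growth.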 Activity calls are given as the source filed them. No stated cut-off is given here; in the data, active = GI50 up to about 1.1 µM and inactive = higher.

Experiments:
Test in all cases: DTP human tumour cell line panel, 48 h
SR = test system: SR
NCI/ADR-RES = test system: NCI/ADR-RES
CAKI-1 = test system: CAKI-1
SNB-75 = test system: SNB-75
NCI-H460 = test system: NCI-H460
HCT-15 = test system: HCT-15
LOX IMVI = test system: LOX IMVI
MDA-N = test system: MDA-N
RPMI-8226 = test system: RPMI-8226
HL-60 = test system: HL-60
786-0 = test system: 786-0
MDA-MB-231 = test system: MDA-MB-231
U-251 = test system: U-251
Malme-3M = test system: Malme-3M
T47D = test system: T47D
NCI-H226 = test system: NCI-H226
ACHN = test system: ACHN
Hs-578T = test system: Hs-578T
SK-MEL-5 = test system: SK-MEL-5
A498 = test system: A498

Row | SMILES | GI50 (SR) | GI50 (NCI/ADR-RES) | GI50 (CAKI-1) | GI50 (SNB-75) | GI50 (NCI-H460) | GI50 (HCT-15) [µM] | GI50 (LOX IMVI) | GI50 (MDA-N) | GI50 (RPMI-8226) | GI50 (HL-60) | GI50 (786-0) | GI50 (MDA-MB-231) | GI50 (U-251) | GI50 (Malme-3M) | GI50 (T47D) | GI50 (NCI-H226) | GI50 (ACHN) | GI50 (Hs-578T) | GI50 (SK-MEL-5) | GI50 (A498)
1 | CCOC(=O)NC(Nc1ccc(F)c(F)c1)(C(=O)OCC)C(F)(F)F (stereo not given) | > 100 µM (inactive) | > 68.5 µM (inactive) | > 100 µM (inactive) | 98.9 µM (inactive) | > 100 µM (inactive) | > 100 | 0.361 µM (active) | > 100 µM (inactive) | > 100 µM (inactive) | 20.4 µM (inactive) | > 100 µM (inactive) | > 100 µM (inactive) | > 100 µM (inactive) | > 100 µM (inactive) | 18.2 µM (inactive) | > 100 µM (inactive) | 27 µM (inactive) | > 25.9 µM (inactive) | 13.8 µM (inactive) | > 100 µM (inactive)
2 | CCCCCCCCCCCCCCCCOP(=O)([O-])OCC[N+](C)(C)C [MILTEFOSINE] | 6.21 µM (inactive) | 43.4 µM (inactive) | 10.3 µM (inactive) | 18.7 µM (inactive) | 6 µM (inactive) | 10.5 | 21.5 µM (inactive) | 25.1 µM (inactive) | 6.1 µM (inactive) | 4.74 µM (inactive) | 9.55 µM (inactive) | 21.8 µM (inactive) | 15.3 µM (inactive) | 21.8 µM (inactive) | 18.2 µM (inactive) | 20.7 µM (inactive) | 16 µM (inactive) | 19.3 µM (inactive) | 23.8 µM (inactive) | 12.9 µM (inactive)
